# Data published in patent US20170157159A1, “COMBINATION TREATMENT OF ACUTE MYELOID LEUKEMIA AND MYELODYSPLASTIC SYNDROME I” (Boehringer Ingelheim International GmbH, priority 2013, published 2017).
# System: human AML cell line MV4;11
# Test: Nude mouse xenograft model derived from human AML cell line MV4;11: tumor growth
# Type: in vivo
# Conditions: 21 days, MV4;11 xenograft
# Protocol: MV4;11 (CRL-9591) cells were obtained from ATCC. According to the Catalogue of Somatic Mutations in Cancer of the Wellcome Trust Sanger Institute, UK, this cell line carries a mutation in the FLT3 gene. Cells were cultured in T175 tissue culture flasks at 37° C. and 5% CO2. The medium used was IMDM supplemented with 10% fetal calf serum, 1% NEAA, 1% sodium pyruvate and 1% glutamine.
# Mice were 8-9 week-old athymic female BomTac: NMRI-Foxn1^nu purchased from Taconic, Denmark. After arrival in the animal facility, mice were allowed to adjust to ambient conditions for at least 3 days before they were used for experiments. They were housed in Macrolon® type II cages in groups of 5 under standardized conditions at 21.5±1.5° C. temperature and 55±10% humidity. Standardized diet (PROVIMI KLIBA) and autoclaved tap water were provided ad libitum.
# To establish subcutaneous tumors, MV4;11 cells were harvested and resuspended in PBS+5% FCS at 5×10^7 cells/ml. 50 μl of the cell suspension containing 2.5×10^6 cells was then injected subcutaneously into the right flank of the mice (1 site per mouse). Growth factor reduced BD Matrigel™ Matrix (BD Biosciences) was added to the cell suspension at a ratio of 1:1 before the injection.
# Volasertib (BI 6727) was dissolved in hydrochloric acid (0.1 N), diluted with 0.9% NaCl and injected intravenously into the tail vein. An administration volume of 10 ml per kg body weight was used. The solution was freshly made up each injection day. Decitabine was dissolved in 0.9% NaCl and administered i.p. An administration volume of 10 ml per kg body weight was used.
# The tumor diameter was measured three times a week with a caliper. The volume of each tumor [in mm^3] was calculated according to the formula “tumor volume=length*diameter^2*π/6”. To monitor side effects of treatment, mice were inspected daily for abnormalities and body weight was determined three times a week. […] In addition animals with tumor sizes exceeding 2000 mm^3 were sacrificed early during the studies for ethical reasons.
# (§1) Animals were treated for 21 days.
# as §1, §1
SMILES,T/C (ratio of median tumor volume of treated vs. control tumors) (Volasertib alone 10 mg/kg i.v. once weekly),T/C (ratio of median tumor volume of treated vs. control tumors) (Volasertib alone 20 mg/kg i.v. once weekly),T/C (ratio of median tumor volume of treated vs. control tumors) (decitabine alone 1.25 mg/kg i.p. twice weekly on two consecutive days),T/C (ratio of median tumor volume of treated vs. control tumors) (decitabine alone 2.5 mg/kg i.p. twice weekly on two consecutive days)
"CC[C@@H]1C(=O)N(C)c2cnc(Nc3ccc(C(=O)N[C@H]4CC[C@H](N5CCN(CC6CC6)CC5)CC4)cc3OC)nc2N1C(C)C [Volasertib, N-[trans-4-[4-(cyclopropylmethyl)-1-piperazinyl]cyclohexyl]-4-[[(7R)-7-ethyl-5,6,7,8-tetrahydro-5-methyl-8-(1-methylethyl)-6-oxo-2-pteridinyl]amino]-3-methoxy-benzamide]",76%,38%,,
"Nc1ncn([C@H]2C[C@H](O)[C@@H](CO)O2)c(=O)n1 [decitabine, Decitabine]",,,59%,53%
